Assay results published in patent US20100316712A1, “PHARMACEUTICAL COMPOSITIONS FOR TREATMENT OF PARKINSON'S DISEASE AND RELATED DISORDERS” (Combinatorx, Incorporated, priority 2006, published 2010).
Where two headings read alike, the source gives them in different places.

Experiments:
[1] = in vivo; cited from earlier work
[2] = doses of 400 mg per day; cited from earlier work
[3] = Plasma carbidopa and levodopa after SINEMET CR alone or after carbidopa pre-dosing; type: in vivo; conditions: fed beagle dogs; for AUC(0-t): beagle, dog, plasma, po, read-out: AUC0-24; for increase in AUC0-24 / increase in peak concentrations: carbidopa pre-dosing + SINEMET CR vs SINEMET CR alone
Experimental: The following experiment was designed to determine if effective levodopa concentration in vivo is increased at the presence of a higher ratio of carbidopa to levodopa (as compared to that used in conventional therapy).
SINEMET® CR tablets (50 mg carbidopa/200 mg levodopa) were administered to fed beagle dogs either alone or after pre-dosing with 12.5 mg and 25 mg of carbidopa, and plasma concentrations of carbidopa and levodopa were measured over time (data not shown).

[4] = Carbidopa 12.5 mg pre-dose + SINEMET CR
[5] = Carbidopa 25 mg pre-dose + SINEMET CR
[6] = SINEMET CR (50 mg carbidopa/200 mg levodopa) alone

| AUC(0-t) [3, 4] | AUC(0-t) [3, 5] | AUC(0-t) [3, 6] | increase in AUC0-24 [3] | increase in peak concentrations [3] | SMILES | fraction of an administered dose absorbed [1] | adverse effects [2] |
| --- | --- | --- | --- | --- | --- | --- | --- |
| 592 ± 303 ng·h/mL | 956 ± 534 ng·h/mL | 215 ± 43 ng·h/mL | ~100% | ~100% | C[C@@](Cc1ccc(O)c(O)c1)(NN)C(=O)O [Carbidopa] | About 70% | fails to elicit adverse effects |
| 8640 ± 2060 ng·h/mL | 7000 ± 3830 ng·h/mL | 3900 ± 298 ng·h/mL | ~100% | ~100% | N[C@@H](Cc1ccc(O)c(O)c1)C(=O)O [Levodopa, L-3,4-dihydroxyphenylalanine] | – | – |
